“Also recorded” adds a separate entry of the source.
Tests used:
[1] = biological target: T1, DAT (h) (antagonist radioligand) (Homo sapiens, UniProt Q01959); test: Radioligand binding panel (Eurofins CEREP), DAT; settings: % inhibition of control specific binding
T1 construct: Eurofins CEREP (contract study 100014859)
Experimental: Lauflumide is tested at 10^-5 M, calculated as a % inhibition of control specific binding of a radioactively labeled ligand specific for each target.
This binding profile panel was broadly defined with roughly an equal number of selective, central and peripheral therapeutically relevant targets, including native animal tissues, radioligands and specific enzymes involved in cell cycle regulation in accordance with Eurofins Standard Operating Procedure (www.eurofins.fr).
For radioligand binding experiments, the half maximal inhibitory concentration (IC50) and the half maximal effective concentration (EC50) values were determined (via computer software) by nonlinear regression analysis of the competition curves using Hill equation curve fitting. The inhibition constants (Ki) were calculated using the Cheng-Prusoff equation (Ki=IC50/(1+(L/KD)), where L is the concentration of radioligand in the assay, and KD is the affinity of the radioligand for the receptor.
The results are expressed as a % control specific binding ([measured specific binding/control specific binding]×100) and as a % inhibition of control specific binding (100−[(measured specific binding/control specific binding)×100]) obtained in the presence of the test compounds. […]

[2] = tested on: Rat model of severe fatigue; test: Rat model of severe fatigue (sleep deprivation): recording of circadian locomotor activity; type: in vivo, Rats, Sprague-Dawley; settings: for Period after administration during which the distance travelled was dramatically increased: 2-h period analysis; for Distance travelled during the 12-h dark phase / Total distance travelled during the full 24-h period / Difference of distance travelled between the dark phase and the light phase / Distance travelled during the 12-h light phase: days 1, 2 and 3
Experimental: In the following example, Lauflumide is also called NLS-4.
Animals are individually housed in transparent polycarbonate cages (1354G Eurostandard Type IV cage, Tecniplast, Italy, 595×380×200 mm, floor area=1820 cm^2) filled with water (23±1° C.) to a height of 1.5 cm. A platform (5 cm height, 6.5 cm diameter) was located at the center of the cage. Animals can stay on the platform in order to stay dry but falls from it when it falls in deep sleep. […] During this period, animals were placed in a modified light/dark cycle with variable durations of the light and dark periods which change every day. This procedure is intended to disrupt the circadian rhythm.
The Sham group was housed in normal condition for the same period under a 12/12 h light/dark cycle.
After the end of the fatigue period, animals were placed in transparent polycarbonate cages (Type E, Iffa Credo, France, 450×300×200 mm, floor area=1032 cm^2), under a 12 h/12 h cycle. Cages were covered with a stainless steel grid in which food and a bottle are placed. A stainless steel removable divider separated food and water. The cages were placed in infrared photobeam detection systems (Acti-track, LSI Leticca, Panlab) allowing to record continuously the distance travelled in the cage. Locomotor activity was recorded continuously for 3 days. The test started at the beginning of the dark phase of the light/dark cycle.
Seventy-six animals were subjected to the fatigue procedure and to the tests as described above. Twelve animals (Sham group) were housed in standard condition.
(§1) After the end of the Fatigue procedure, animals were divided into 10 groups which received before tests (total: 3 administrations) a per-os (p.o., oral gavage) administration of: • Sham (no fatigue) group (N=12): Vehicle. • Control group (N=11): Vehicle. • Modafinil 32 (N=10): modafinil (32 mg/kg). • Modafinil 64 (N=10): modafinil (64 mg/kg). • Modafinil 128 (N=5): modafinil (128 mg/kg). • NLS-4 16 (N=5): NLS-4 (16 mg/kg). • NLS-4 32 (N=10): NLS-4 (32 mg/kg). • NLS-4 64 (N=10): NLS-4 (64 mg/kg). • NLS-4 128 (N=10): NLS-4 (128 mg/kg). • NLS-4 256 (N=5): NLS-4 (256 mg/kg).
Read-out: distance travelled during 24-h periods, 12-h dark and light periods and during 2-h periods.
Data are expressed as mean and standard error of mean (SEM).
Statistical analyses: Student's t test, repeated measure ANOVA.
A difference is considered statistically significant at p≤0.05.

[3] = Body weight during fatigue procedure and test period; type: in vivo, Rats, Sprague-Dawley; settings: test period
Experimental: FIG. 26 Body weight (in g; mean, SEM) before the beginning and during the fatigue procedure (F-D1-7) and during the test period (T-D1-D3+24 h).
Animals were weighed every day.
as §1

impulsivity = test: Impulsivity; type: in vivo; settings: three doses tested; compared with modafinil
[4] = 16 mg/kg p.o., vs. Control (fatigue) group
[5] = 16 mg/kg p.o., vs. Modafinil 32 group (32 mg/kg)
[6] = 16 mg/kg p.o., vs. Modafinil 64 group (64 mg/kg)
[7] = 16 mg/kg p.o., vs. Sham (no fatigue) group, listed as NLS-4
[8] = 32 mg/kg p.o., vs. Control (fatigue) group
[9] = 32 mg/kg p.o., vs. Sham (no fatigue) group
[10] = 64 mg/kg p.o., vs. Control (fatigue) group
[11] = 64 mg/kg p.o., vs. Sham (no fatigue) group
[12] = 128 mg/kg p.o., vs. Control (fatigue) group
[13] = 128 mg/kg p.o., vs. Sham (no fatigue) group
[14] = 256 mg/kg p.o., vs. Control (fatigue) group
[15] = 256 mg/kg p.o., vs. Sham (no fatigue) group

T1 sequence (Q01959 whole entry): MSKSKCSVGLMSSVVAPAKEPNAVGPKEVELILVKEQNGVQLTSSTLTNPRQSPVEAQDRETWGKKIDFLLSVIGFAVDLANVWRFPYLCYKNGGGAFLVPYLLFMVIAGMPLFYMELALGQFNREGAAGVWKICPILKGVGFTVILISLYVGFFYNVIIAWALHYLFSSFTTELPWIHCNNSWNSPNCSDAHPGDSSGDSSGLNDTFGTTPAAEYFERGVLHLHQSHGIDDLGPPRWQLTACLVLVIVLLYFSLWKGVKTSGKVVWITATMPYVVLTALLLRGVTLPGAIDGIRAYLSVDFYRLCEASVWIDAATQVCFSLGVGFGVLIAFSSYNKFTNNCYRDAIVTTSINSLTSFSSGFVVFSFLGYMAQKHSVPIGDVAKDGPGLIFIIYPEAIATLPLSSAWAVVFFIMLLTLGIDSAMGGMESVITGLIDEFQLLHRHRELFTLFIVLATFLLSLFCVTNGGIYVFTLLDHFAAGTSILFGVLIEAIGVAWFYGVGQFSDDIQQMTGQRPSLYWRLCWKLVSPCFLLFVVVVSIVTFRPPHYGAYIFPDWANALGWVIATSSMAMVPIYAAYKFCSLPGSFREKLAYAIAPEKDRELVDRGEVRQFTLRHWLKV

## NC(=O)C[S@@+]([O-])C(c1ccc(F)cc1)c1ccc(F)cc1 [Lauflumide, 2-[(R)-((bis(4-fluorophenyl)methane)sulfinyl)]acetamide]
[1]
  % Inhibition at 10^−5M: 84.4%
[2]; 16 mg/kg NLS-4 vs. 64 mg/kg modafinil
  Dose reducing the impairment of circadian rhythm, relative to modafinil: four times lower
[2]; 16 mg/kg p.o.
  Increase in locomotor activity compared with modafinil (32 mg/kg): significantly higher
  Increase in locomotor activity compared with modafinil (64 mg/kg): of the same magnitude
  Motor activity during the first 2-h periods following the dosing: increased
  Period after administration during which the distance travelled was dramatically increased: 2 h
[2]; [4]
  Distance travelled during the 12-h dark phase: higher
  Total distance travelled during the full 24-h period: higher
[2]; 16 mg/kg p.o., vs. Control (fatigue) group, listed as NLS-4
  Difference of distance travelled between the dark phase and the light phase: higher or tended to be higher; also recorded: increased
[2]; [5]
  Difference of distance travelled between the dark phase and the light phase: higher than the Modafinil 32 group on days 2 and 3 only
  Distance travelled during the 12-h light phase: higher than the Modafinil 32 group during the dark period on day 3 only and during the light period on day 1 only
  Total distance travelled during the full 24-h period: higher than the Modafinil 32 group on day 3 only
[2]; [6]
  Difference of distance travelled between the dark phase and the light phase: not significantly different
  Distance travelled during the 12-h dark phase: not significantly different
  Distance travelled during the 12-h light phase: not significantly different
  Total distance travelled during the full 24-h period: not significantly different
[2]; 16 mg/kg p.o., vs. Sham (no fatigue) group
  Total distance travelled during the full 24-h period: not significantly different
[2]; [7]
  Difference of distance travelled between the dark phase and the light phase: increased the distance travelled in comparison with the Sham group during day 3 only; also recorded: higher than the Sham group on day 3 only
  Distance travelled during the 12-h dark phase: increased the distance travelled in comparison with the Sham group during the light phase on day 1 and during the dark phase on day 3; also recorded: higher than the Sham group during the dark period on day 3 only
  Distance travelled during the 12-h light phase: increased the distance travelled in comparison with the Sham group during the light phase on day 1 and during the dark phase on day 3; also recorded: higher than the Control group during the light periods on day 1 only
[2]; 32 mg/kg p.o.
  Period after administration during which the distance travelled was dramatically increased: 8 h
[2]; [8]
  Distance travelled during the 12-h dark phase: higher
  Distance travelled during the 12-h light phase: not significantly different
  Total distance travelled during the full 24-h period: higher
[2]; 32 mg/kg p.o., vs. Control (fatigue) group, listed as NLS-4
  Difference of distance travelled between the dark phase and the light phase: higher or tended to be higher; also recorded: increased
[2]; [9]
  Difference of distance travelled between the dark phase and the light phase: increased the distance travelled in comparison with the Sham group during day 3 only
  Distance travelled during the 12-h dark phase: increased the distance travelled in comparison with the Sham group during the light phase on days 1, 2 and 3, and during the dark phase on days 2 and 3
  Distance travelled during the 12-h light phase: increased the distance travelled in comparison with the Sham group during the light phase on days 1, 2 and 3, and during the dark phase on days 2 and 3
  Total distance travelled during the full 24-h period: increased the distance travelled in comparison with the Sham group during days 1, 2 and 3
[2]; [10]
  Distance travelled during the 12-h dark phase: higher
  Distance travelled during the 12-h light phase: higher for the NLS-4 64 group than for the Control group during the dark phase on days 1, 2 and 3 and during the light phase on day 3 only
  Total distance travelled during the full 24-h period: higher
[2]; 64 mg/kg p.o., vs. Control (fatigue) group, listed as NLS-4
  Difference of distance travelled between the dark phase and the light phase: higher or tended to be higher; also recorded: increased
[2]; [11]
  Distance travelled during the 12-h dark phase: increased the distance travelled in comparison with the Sham group during both the dark and light phase on days 1, 2 and 3
  Distance travelled during the 12-h light phase: increased the distance travelled in comparison with the Sham group during both the dark and light phase on days 1, 2 and 3
  Total distance travelled during the full 24-h period: increased the distance travelled in comparison with the Sham group during days 1, 2 and 3
[2]; [12]
  Distance travelled during the 12-h dark phase: higher
  Distance travelled during the 12-h light phase: higher
  Total distance travelled during the full 24-h period: higher
[2]; 128 mg/kg p.o., vs. Control (fatigue) group, listed as NLS-4
  Difference of distance travelled between the dark phase and the light phase: higher or tended to be higher; also recorded: increased
[2]; [13]
  Distance travelled during the 12-h dark phase: increased the distance travelled in comparison with the Sham group during both the dark and light phase on days 1, 2 and 3
  Distance travelled during the 12-h light phase: increased the distance travelled in comparison with the Sham group during both the dark and light phase on days 1, 2 and 3
  Total distance travelled during the full 24-h period: increased the distance travelled in comparison with the Sham group during days 1, 2 and 3
[2]; [14]
  Distance travelled during the 12-h dark phase: higher
  Distance travelled during the 12-h light phase: higher
  Total distance travelled during the full 24-h period: higher
[2]; 256 mg/kg p.o., vs. Control (fatigue) group, listed as NLS-4
  Difference of distance travelled between the dark phase and the light phase: higher or tended to be higher; also recorded: increased
[2]; [15]
  Difference of distance travelled between the dark phase and the light phase: increased the distance travelled in comparison with the Sham group during day 3 only
  Distance travelled during the 12-h dark phase: increased the distance travelled in comparison with the Sham group during both the dark and light phase on days 1, 2 and 3
  Distance travelled during the 12-h light phase: increased the distance travelled in comparison with the Sham group during both the dark and light phase on days 1, 2 and 3
  Total distance travelled during the full 24-h period: increased the distance travelled in comparison with the Sham group during days 1, 2 and 3
[2]; 16-256 mg/kg p.o.
  Distance travelled during the dark phase (2-h period analysis), dose relation: dose-dependently increased
[2]; 64-256 mg/kg p.o.
  Period after administration during which the distance travelled was dramatically increased: 10 h
[3]; 16 mg/kg p.o.
  Weight loss induced by the fatigue procedure: not modified
[3]; 32-256 mg/kg p.o.
  Weight loss induced by the fatigue procedure: aggravated
impulsivity
  Impulsivity: improved impulsivity at the three doses tested with a better significant response than modafinil

Source: US20250049737A1, “Lauflumide and derivatives thereof for treating chronic fatigue syndrome and myalgic encephalomyelitis/chronic fatigue syndrome (ME/CFS)” (NLS Pharmaceutics AG, priority 2021, published 2025)
